Assay results reported in PMC12377202, “Design, synthesis, and cytotoxic evaluation of quinazoline-based derivatives as VEGER-2 inhibitors: comparative study against EGFR kinase activity, induction of apoptosis, and molecular docking study” (RSC Advances, 2025).

Experiments:
[1] = tested on: MCF-7; experiment: MTT anti-proliferative assay, MCF-7; type: cell-based, human; settings: Homo sapiens, MCF7
[2] = tested on: HEK-293; experiment: MTT cytotoxicity against normal cells; type: cell-based, human
[3] = MTT cytotoxicity against normal cells; type: cell-based, human; settings: human
[4] = target: EGFR (Homo sapiens, UniProt P00533); experiment: EGFR kinase inhibition assay (ELISA kit)
[5] = tested on: IL-6R; experiment: IL-6R level in HepG-2 cells; type: cell-based, human
Method: (§1) All synthesized compounds were tested at their cytotoxic concentrations in HepG-2 cells for analysis of gene expression levels of apoptotic markers caspase-3, caspase-9, TNF-α, and IL-6 proteins, and only two active compounds were tested for BAX and Bcl-2 proteins.
(§2) through Flow cytometric analysis.
(§3) Pellets were collected again and incubated with
(§4) Total RNA from vehicle-treated
(§5) (Thermo Scientific, USA).
(§6) All experiments were performed in […]

[6] = tested on: HepG-2 cells; experiment: Cell cycle analysis (PI staining, flow cytometry); type: cell-based, human
Method: In order to cause cytotoxicity, anticancer medicines must stop cell division at specific checkpoints, which are discrete stages of the cell cycle.
Propidium iodide (PI) staining and flow cytometry analysis[74,75] were used to analyze the cell cycle for derivatives 8a and 9a, as illustrated in the SI.
as §2, §3, §4, §5, §6

[7] = tested on: K-562; experiment: MTT anti-proliferative assay, K-562; type: cell-based, human; settings: Homo sapiens, K562
[8] = tested on: caspase-9; experiment: Caspase-9 expression level in HepG-2 cells; type: cell-based, human; settings: for Caspase-9 ± SE: HepG-2, at IC50 concentrations, control 11.01
Method: as §1, §2, §3, §4, §5, §6

[9] = target: VEGFR-2 (Homo sapiens, UniProt P35968); experiment: In vitro VEGFR-2 inhibitory assay (ELISA kit); settings: VEGFR-2 kinase
[10] = tested on: caspase-3; experiment: Caspase-3 expression level in HepG-2 cells; type: cell-based, human; settings: for Caspase-3 ± SE: HepG-2, at IC50 concentrations, control 0.460
Method: as §1, §2, §3, §4, §5, §6

[11] = tested on: HepG-2; experiment: MTT anti-proliferative assay, HepG-2; type: cell-based, human; settings: Homo sapiens, HepG2
[12] = tested on: TNF-alpha; experiment: TNF-alpha level in HepG-2 cells; type: cell-based, human; settings: control 43.48
Method: as §1, §2, §3, §4, §5, §6

VEGFR-2, sequence (P35968 20-1356): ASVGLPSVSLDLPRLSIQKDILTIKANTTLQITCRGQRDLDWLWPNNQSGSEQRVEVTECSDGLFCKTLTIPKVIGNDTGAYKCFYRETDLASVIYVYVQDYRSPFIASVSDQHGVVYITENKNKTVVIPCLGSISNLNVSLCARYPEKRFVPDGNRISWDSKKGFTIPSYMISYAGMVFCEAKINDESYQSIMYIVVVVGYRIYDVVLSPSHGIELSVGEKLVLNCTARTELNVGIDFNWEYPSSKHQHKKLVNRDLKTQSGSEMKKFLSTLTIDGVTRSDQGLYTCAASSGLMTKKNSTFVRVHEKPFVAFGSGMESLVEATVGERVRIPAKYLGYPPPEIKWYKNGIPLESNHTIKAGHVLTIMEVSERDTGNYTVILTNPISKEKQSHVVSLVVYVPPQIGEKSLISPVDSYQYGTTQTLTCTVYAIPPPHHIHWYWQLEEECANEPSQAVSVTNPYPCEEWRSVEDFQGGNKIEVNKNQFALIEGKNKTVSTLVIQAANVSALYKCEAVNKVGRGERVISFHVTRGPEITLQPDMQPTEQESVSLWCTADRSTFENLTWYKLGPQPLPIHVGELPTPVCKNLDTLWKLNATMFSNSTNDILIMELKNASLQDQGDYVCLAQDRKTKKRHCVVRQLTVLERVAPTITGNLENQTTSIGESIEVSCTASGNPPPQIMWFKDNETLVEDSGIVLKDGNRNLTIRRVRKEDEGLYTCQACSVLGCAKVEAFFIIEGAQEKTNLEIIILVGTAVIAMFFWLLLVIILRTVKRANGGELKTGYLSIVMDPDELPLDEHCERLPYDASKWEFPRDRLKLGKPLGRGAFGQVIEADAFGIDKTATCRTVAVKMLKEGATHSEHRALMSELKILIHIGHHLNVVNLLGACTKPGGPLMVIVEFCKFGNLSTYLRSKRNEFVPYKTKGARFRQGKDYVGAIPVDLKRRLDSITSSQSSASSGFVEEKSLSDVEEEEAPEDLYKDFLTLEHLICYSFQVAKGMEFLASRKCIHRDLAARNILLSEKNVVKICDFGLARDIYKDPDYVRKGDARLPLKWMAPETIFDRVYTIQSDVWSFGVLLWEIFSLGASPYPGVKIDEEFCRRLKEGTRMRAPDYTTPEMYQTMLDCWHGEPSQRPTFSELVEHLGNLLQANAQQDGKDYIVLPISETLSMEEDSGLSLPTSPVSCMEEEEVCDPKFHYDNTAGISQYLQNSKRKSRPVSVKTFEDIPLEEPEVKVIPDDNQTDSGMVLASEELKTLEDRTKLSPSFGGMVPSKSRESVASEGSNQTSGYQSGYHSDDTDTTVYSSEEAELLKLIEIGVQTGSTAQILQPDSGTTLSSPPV
EGFR, sequence (P00533 25-1210): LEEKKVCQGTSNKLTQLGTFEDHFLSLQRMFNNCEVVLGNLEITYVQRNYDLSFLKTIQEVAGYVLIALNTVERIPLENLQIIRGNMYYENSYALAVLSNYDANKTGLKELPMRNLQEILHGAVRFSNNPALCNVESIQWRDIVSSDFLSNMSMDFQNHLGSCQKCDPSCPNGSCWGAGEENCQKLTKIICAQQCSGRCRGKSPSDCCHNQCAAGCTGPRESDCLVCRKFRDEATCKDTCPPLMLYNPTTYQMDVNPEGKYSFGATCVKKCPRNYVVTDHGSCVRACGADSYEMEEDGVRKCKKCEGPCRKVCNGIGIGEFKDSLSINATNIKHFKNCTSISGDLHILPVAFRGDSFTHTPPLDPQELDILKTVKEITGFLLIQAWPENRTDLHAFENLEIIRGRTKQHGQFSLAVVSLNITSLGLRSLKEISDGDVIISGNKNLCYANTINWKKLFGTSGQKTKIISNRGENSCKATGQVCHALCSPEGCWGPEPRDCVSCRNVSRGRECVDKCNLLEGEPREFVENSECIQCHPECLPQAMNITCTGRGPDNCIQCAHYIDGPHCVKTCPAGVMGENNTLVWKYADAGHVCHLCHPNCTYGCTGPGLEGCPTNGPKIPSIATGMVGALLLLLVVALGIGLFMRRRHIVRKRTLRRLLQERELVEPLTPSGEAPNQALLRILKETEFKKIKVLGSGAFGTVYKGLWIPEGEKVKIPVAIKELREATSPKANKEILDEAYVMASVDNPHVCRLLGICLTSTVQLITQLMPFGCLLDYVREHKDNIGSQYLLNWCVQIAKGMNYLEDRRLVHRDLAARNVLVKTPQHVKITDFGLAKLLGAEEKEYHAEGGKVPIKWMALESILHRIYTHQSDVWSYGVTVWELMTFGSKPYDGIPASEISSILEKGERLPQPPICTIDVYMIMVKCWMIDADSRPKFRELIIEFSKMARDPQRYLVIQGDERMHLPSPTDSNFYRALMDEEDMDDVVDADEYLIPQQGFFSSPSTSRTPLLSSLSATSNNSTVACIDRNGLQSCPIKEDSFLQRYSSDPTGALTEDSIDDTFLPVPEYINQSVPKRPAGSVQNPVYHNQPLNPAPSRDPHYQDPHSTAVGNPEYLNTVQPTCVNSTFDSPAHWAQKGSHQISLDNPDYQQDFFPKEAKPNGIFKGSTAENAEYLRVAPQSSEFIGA

Structure (SMILES): O=C(Cn1cnc2cc([N+](=O)[O-])ccc2c1=O)Nc1ccccc1Cl [9b, N-(2-Chlorophenyl)-2-(7-nitro-4-oxoquinazolin-3(4H)-yl)acetamide]
- viability at 0.195 µmol ([1]; MCF-7, 0.195 umol): 52.1%
- cytotoxicity at 0.195 µmol ([1]; MCF-7, 0.195 umol, read-out: Toxicity %): 47.9%
- viability at 0.391 µmol ([1]; MCF-7, 0.391 umol): 22.7%
- cytotoxicity at 0.391 µmol ([1]; MCF-7, 0.391 umol, read-out: Toxicity %): 77.3%
- viability at 0.781 µmol ([1]; MCF-7, 0.781 umol): 15.6%
- cytotoxicity at 0.781 µmol ([1]; MCF-7, 0.781 umol, read-out: Toxicity %): 84.4%
- viability at 1.563 µmol ([1]; MCF-7, 1.563 umol): 11.9%
- cytotoxicity at 1.563 µmol ([1]; MCF-7, 1.563 umol, read-out: Toxicity %): 88.1%
- viability at 3.125 µmol ([1]; MCF-7, 3.125 umol): 9.45%
- cytotoxicity at 3.125 µmol ([1]; MCF-7, 3.125 umol, read-out: Toxicity %): 90.5%
- viability at 6.25 µmol ([1]; MCF-7, 6.25 umol): 8%
- cytotoxicity at 6.25 µmol ([1]; MCF-7, 6.25 umol, read-out: Toxicity %): 92%
- viability at 12.5 µmol ([1]; MCF-7, 12.5 umol): 7.26%
- cytotoxicity at 12.5 µmol ([1]; MCF-7, 12.5 umol, read-out: Toxicity %): 92.7%
- viability at 25 µmol ([1]; MCF-7, 25 umol): 6.77%
- cytotoxicity at 25 µmol ([1]; MCF-7, 25 umol, read-out: Toxicity %): 93.2%
- IC50 ([1]; MTT, MCF-7, read-out: Cytotoxicity against cancer cells IC50 MCF-7): 209 ± 3.7 nM
- Toxicity % ([2]; HEK-293, 0.195 umol/ml): 1.903%
- Toxicity % ([2]; HEK-293, 0.391 umol/ml): 23.13%
- Toxicity % ([2]; HEK-293, 0.781 umol/ml): 37.87%
- Toxicity % ([2]; HEK-293, 1.563 umol/ml): 47.29%
- Toxicity % ([2]; HEK-293, 3.125 umol/ml): 70.33%
- Toxicity % ([2]; HEK-293, 6.25 umol/ml): 82.82%
- Toxicity % ([2]; HEK-293, 12.5 umol/ml): 91.22%
- Toxicity % ([2]; HEK-293, 25 umol/ml): 93.7%
- selectivity, cancer cells vs normal human kidney cells (fold) ([2]; HEK-293 vs K-562): 9 fold
- selectivity, cancer cells vs normal human kidney cells (fold) ([2]; HEK-293 vs MCF-7): 8.4 fold
- IC50 ([2]; Homo sapiens, HEK293, raw data, HEK-293): 1750 nM
- IC50 at 3 days ([3]; HEK-293 cells (normal human embryonic kidney cells), MTT, HEK-293, read-out: Cytotoxicity against normal cell IC50 HEK-293): 1747 ± 2.6 nM
- viability at 3 days, 0.195 umol/ml ([3]; HEK-293 cells (normal human embryonic kidney), HEK-293, 0.195 umol/ml): 98.1%
- viability at 3 days, 0.391 umol/ml ([3]; HEK-293 cells (normal human embryonic kidney), HEK-293, 0.391 umol/ml): 76.9%
- viability at 3 days, 0.781 umol/ml ([3]; HEK-293 cells (normal human embryonic kidney), HEK-293, 0.781 umol/ml): 62.1%
- viability at 3 days, 1.563 umol/ml ([3]; HEK-293 cells (normal human embryonic kidney), HEK-293, 1.563 umol/ml): 52.7%
- viability at 3 days, 3.125 umol/ml ([3]; HEK-293 cells (normal human embryonic kidney), HEK-293, 3.125 umol/ml): 29.7%
- viability at 3 days, 6.25 umol/ml ([3]; HEK-293 cells (normal human embryonic kidney), HEK-293, 6.25 umol/ml): 17.2%
- viability at 3 days, 12.5 umol/ml ([3]; HEK-293 cells (normal human embryonic kidney), HEK-293, 12.5 umol/ml): 8.78%
- viability at 3 days, 25 umol/ml ([3]; HEK-293 cells (normal human embryonic kidney), HEK-293, 25 umol/ml): 6.3%
- Activity % ([4]; HepG2): 52.262%
- Inhibition % ([4]; HepG2): 47.738%
- Activity % ([4]; K-562): 47.456%
- Inhibition % ([4]; K-562): 52.544%
- Activity % ([4]; MCF7): 25.292%
- Inhibition % ([4]; MCF7): 74.708%
- IL-6R ± SE ([5]; HepG-2, at IC50 concentrations, control 44.10): 28.78 ± 1.23 ng/L
- IL-6R protein level ([5]; HepG-2, control 44.10%): 28.78 ng/L
- IL-6 ±SE ([5]; raw data, HepG2, control 44.10): 19.54 ng/L
- % Sub-G1 ([6]; HepG-2, cytotoxic concentration, 24 h, control 68.12): 94.68%
- % S ([6]; HepG-2, control 2.23): 0.19%
- % G2/M ([6]; HepG-2, control 6.52): 0.24%
- % G1 ([6]; HepG-2, control 23.14): 4.89%
- viability at 0.195 µmol ([7]; K-562, 0.195 umol): 47.5%
- cytotoxicity at 0.195 µmol ([7]; K-562, 0.195 umol, read-out: Toxicity %): 52.5%
- viability at 0.391 µmol ([7]; K-562, 0.391 umol): 37.8%
- cytotoxicity at 0.391 µmol ([7]; K-562, 0.391 umol, read-out: Toxicity %): 62.2%
- viability at 0.781 µmol ([7]; K-562, 0.781 umol): 25.5%
- cytotoxicity at 0.781 µmol ([7]; K-562, 0.781 umol, read-out: Toxicity %): 74.5%
- viability at 1.563 µmol ([7]; K-562, 1.563 umol): 13.6%
- cytotoxicity at 1.563 µmol ([7]; K-562, 1.563 umol, read-out: Toxicity %): 86.4%
- viability at 3.125 µmol ([7]; K-562, 3.125 umol): 8.05%
- cytotoxicity at 3.125 µmol ([7]; K-562, 3.125 umol, read-out: Toxicity %): 92%
- viability at 6.25 µmol ([7]; K-562, 6.25 umol): 8.5%
- cytotoxicity at 6.25 µmol ([7]; K-562, 6.25 umol, read-out: Toxicity %): 91.5%
- viability at 12.5 µmol ([7]; K-562, 12.5 umol): 6.86%
- cytotoxicity at 12.5 µmol ([7]; K-562, 12.5 umol, read-out: Toxicity %): 93.1%
- viability at 25 µmol ([7]; K-562, 25 umol): 6.2%
- cytotoxicity at 25 µmol ([7]; K-562, 25 umol, read-out: Toxicity %): 93.8%
- IC50 ([7]; MTT, K-562, read-out: Cytotoxicity against cancer cells IC50 K-562): 190 ± 3.7 nM
- Caspase-9 ± SE [8]: 7.31 ± 0.93 ng/L
- Caspase-9 ± SE ([8]; listed as N5): 7.31 ng/L
- caspase-9 expression level, fold increase ([8]; HepG-2, vs control cells): no apoptotic effect
- Activity % ([9]; HepG2): 33.564%
- Inhibition % ([9]; HepG2): 66.436%
- Activity % ([9]; K-562): 56.948%
- Inhibition % ([9]; K-562): 43.052%
- Activity % ([9]; MCF7): 80.680%
- Inhibition % ([9]; MCF7): 19.320%
- Caspase-3 ± SE [10]: 1.08 ± 0.028 ng/mL
- Caspase-3 ± SE ([10]; listed as N5): 1.08 ng/mL
- caspase-3 expression level, fold increase ([10]; HepG-2, vs control cells): 2.35 fold
- viability at 0.195 µg/mL ([11]; HepG-2, 0.195 ug/ml): 49.7%
- cytotoxicity at 0.195 µg/mL ([11]; HepG-2, 0.195 ug/ml, read-out: Toxicity %): 50.3%
- viability at 0.391 µg/mL ([11]; HepG-2, 0.391 ug/ml): 37.3%
- cytotoxicity at 0.391 µg/mL ([11]; HepG-2, 0.391 ug/ml, read-out: Toxicity %): 62.7%
- viability at 0.781 µg/mL ([11]; HepG-2, 0.781 ug/ml): 27.7%
- cytotoxicity at 0.781 µg/mL ([11]; HepG-2, 0.781 ug/ml, read-out: Toxicity %): 72.3%
- viability at 1.563 µg/mL ([11]; HepG-2, 1.563 ug/ml): 13%
- cytotoxicity at 1.563 µg/mL ([11]; HepG-2, 1.563 ug/ml, read-out: Toxicity %): 87%
- viability at 3.125 µg/mL ([11]; HepG-2, 3.125 ug/ml): 9.93%
- cytotoxicity at 3.125 µg/mL ([11]; HepG-2, 3.125 ug/ml, read-out: Toxicity %): 90.1%
- viability at 6.25 µg/mL ([11]; HepG-2, 6.25 ug/ml): 7.8%
- cytotoxicity at 6.25 µg/mL ([11]; HepG-2, 6.25 ug/ml, read-out: Toxicity %): 92.2%
- viability at 12.5 µg/mL ([11]; HepG-2, 12.5 ug/ml): 6.7%
- cytotoxicity at 12.5 µg/mL ([11]; HepG-2, 12.5 ug/ml, read-out: Toxicity %): 93.3%
- viability at 25 µg/mL ([11]; HepG-2, 25 ug/ml): 5.93%
- cytotoxicity at 25 µg/mL ([11]; HepG-2, 25 ug/ml, read-out: Toxicity %): 94.1%
- IC50 ([11]; MTT, HepG-2, read-out: Cytotoxicity against cancer cells IC50 HepG-2): 194 ± 6.6 nM
- TNF-alpha ±SE ([12]; HepG-2, at IC50 concentrations): 27.34 ± 1.95 ng/L
- TNF-alpha ±SE ([12]; raw data, HepG2): 14.37 ng/L
